Among the data in ChEMBL document CHEMBL1142755, “A macromolecular prodrug of doxorubicin conjugated to a biodegradable cyclotriphosphazene bearing a tetrapeptide” (2005) are EC50 and ED50 values, retold here.

Where a name gives a salt, the structure may show the parent alone.

This experiment deals with L1210. The experiment can be described thus: In vitro cytotoxicity against Leukemia L1210 cell line. Format: functional. The following applies: Mus musculus.

As to `COc1cccc2c1C(=O)c1c(O)c3c(c(O)c1C2=O)C[C@@](O)(C(=O)CO)C[C@@H]3O[C@H]1C[C@H](N)[C@H](O)[C@H](C)O1` [DOXORUBICIN HYDROCHLORIDE], the EC50 (read-out: ED50 (the source's name)) is 0.1 µM.
For CISPLATIN, the ED50 was found to be 1 µM.
